Results from ChEMBL document CHEMBL1629680, “Role for Fks1 in the intrinsic echinocandin resistance of Fusarium solani as evidenced by hybrid expression in Saccharomyces cerevisiae” (2009).
In brackets after ≈: the same amount, converted by molar mass. *1 amine or outer side, *2 acyl side, *3 side chain or, on linkers, in order; H or OH if unused. Where a SMILES comes first, the peptide text is derived from it. Bridges are numbered along the chain shown (N, C = ends). [ ]: non-standard residue; d: D form. The star is where a group is joined. hTyr(3S-OH,4S-OH,3'-OSO3H) = N[C@H](C(=O)O)[C@H](O)[C@@H](O)c1ccc(O)c(OS(=O)(=O)O)c1; Orn(4R-OH,5R-OH) = O=C([C@H](C[C@@H](O)[C@@H](O)N[*:3])N[*:1])[*:2]; Pro(3S-OH,4S-Me) = C[C@H]1CN[C@H](C(=O)O)[C@H]1O; X1 = CCCCCOc1ccc(-c2cc(-c3ccc(C(=O)*)cc3)no2)cc1; Gln(3R-OH) = NC(=O)C[C@@H](O)[C@H](N)C(=O)O; Hyp = O=C(O)[C@@H]1C[C@@H](O)CN1

Experiments:
Type in all cases: functional
Saccharomyces cerevisiae [1] = assay: Antimicrobial activity against Saccharomyces cerevisiae BY4742 containing Fusarium solani fks1-FS453-649 hybrid after 24 hrs by broth microdilution assay; details: BY4742, 24 h
Saccharomyces cerevisiae [2] = assay: Antimicrobial activity against Saccharomyces cerevisiae BY4742 containing Fusarium solani fks1617-649 hybrid after 24 hrs by broth microdilution assay; details: BY4742, 24 h
Saccharomyces cerevisiae [3] = assay: Antimicrobial activity against Saccharomyces cerevisiae BY4742 fks1-F639F wild type after 24 hrs by broth microdilution assay; details: BY4742, 24 h
Saccharomyces cerevisiae [4] = assay: Antimicrobial activity against Saccharomyces cerevisiae BY4742 containing Candida glabrata fks1-CgS453-649 hybrid after 24 hrs by broth microdilution assay; details: BY4742, 24 h
Saccharomyces cerevisiae [5] = assay: Antimicrobial activity against Saccharomyces cerevisiae BY4742 fks1-F639Y mutant after 24 hrs by broth microdilution assay; details: BY4742, 24 h
Saccharomyces cerevisiae [6] = assay: Antimicrobial activity against Saccharomyces cerevisiae BY4742 containing Fusarium solani fks1-FS453-649 with F639 mutant after 24 hrs by broth microdilution assay; details: BY4742, 24 h
Saccharomyces cerevisiae [7] = assay: Antimicrobial activity against Saccharomyces cerevisiae BY4742 containing Aspergillus fumigatus fks1delta453-649 hybrid after 24 hrs by broth microdilution assay; details: BY4742, 24 h
Saccharomyces cerevisiae [8] = assay: Antimicrobial activity against Saccharomyces cerevisiae BY4742 containing Candida glabrata fks1-CgR453-649 hybrid after 24 hrs by broth microdilution assay; details: BY4742, 24 h
Saccharomyces cerevisiae [9] = assay: Antimicrobial activity against Saccharomyces cerevisiae BY4742 containing Fusarium solani fks1617-649 with F639 mutant after 24 hrs by broth microdilution assay; details: BY4742, 24 h
Nakaseomyces glabratus [10] = assay: Antimicrobial activity against Candida glabrata containing FSK2 after 24 hrs by broth microdilution assay
Saccharomyces cerevisiae [11] = assay: Antimicrobial activity against Saccharomyces cerevisiae BY4742 containing Aspergillus fumigatus fks1617-649 hybrid after 24 hrs by broth microdilution assay; details: BY4742, 24 h
Saccharomyces cerevisiae [12] = assay: Antimicrobial activity against Saccharomyces cerevisiae BY4742 transfected with Scedosporium prolificans FSK1 gene sequence after 24 hrs by broth microdilution assay; details: BY4742, 24 h
Saccharomyces cerevisiae [13] = assay: Antimicrobial activity against Saccharomyces cerevisiae BY4742 fks1delta617-649::URA3 deletant after 24 hrs by broth microdilution assay; details: BY4742, 24 h
Nakaseomyces glabratus [14] = assay: Antimicrobial activity against Candida glabrata containing fsk2-L588P/F639V mutant after 24 hrs by broth microdilution assay

| SMILES | MIC (Saccharomyces cerevisiae [1]) [µg/mL] | MIC (Saccharomyces cerevisiae [2]) [µg/mL] | MIC (Saccharomyces cerevisiae [3]) [µg/mL] | MIC (Saccharomyces cerevisiae [4]) [µg/mL] | MIC (Saccharomyces cerevisiae [5]) [µg/mL] | MIC (Saccharomyces cerevisiae [6]) [µg/mL] | MIC (Saccharomyces cerevisiae [7]) [µg/mL] | MIC (Saccharomyces cerevisiae [8]) [µg/mL] | MIC (Saccharomyces cerevisiae [9]) [µg/mL] | MIC (Nakaseomyces glabratus [10]) [µg/mL] | MIC (Saccharomyces cerevisiae [11]) [µg/mL] | MIC (Saccharomyces cerevisiae [12]) [µg/mL] | MIC (Saccharomyces cerevisiae [13]) [µg/mL] | MIC (Nakaseomyces glabratus [14]) [µg/mL] |
| --- | --- | --- | --- | --- | --- | --- | --- | --- | --- | --- | --- | --- | --- | --- |
| CCCCCOc1ccc(-c2cc(-c3ccc(C(=O)N[C@H]4C[C@@H](O)[C@@H](O)NC(=O)[C@@H]5[C@@H](O)[C@@H](C)CN5C(=O)[C@H]([C@H](O)CC(N)=O)NC(=O)[C@H]([C@H](O)[C@@H](O)c5ccc(O)c(OS(=O)(=O)O)c5)NC(=O)[C@@H]5C[C@@H](O)CN5C(=O)[C@H]([C@@H](C)O)NC4=O)cc3)no2)cc1 [MICAFUNGIN] (X1-[Orn(4R-OH,5R-OH)]T[Hyp][hTyr(3S-OH,4S-OH,3'-OSO3H)][Gln(3R-OH)][Pro(3S-OH,4S-Me)]; lactam 1-C) | 0.031 (≈ 0.0244 µM) | 0.25 (≈ 0.197 µM) | 0.062 (≈ 0.0488 µM) | 0.016 (≈ 0.0126 µM) | 0.5 (≈ 0.394 µM) | 0.008 (≈ 0.0063 µM) | 0.062 (≈ 0.0488 µM) | 0.062 (≈ 0.0488 µM) | 0.031 (≈ 0.0244 µM) | 0.031 (≈ 0.0244 µM) | 0.031 (≈ 0.0244 µM) | 0.062 (≈ 0.0488 µM) | 0.062 (≈ 0.0488 µM) | 0.062 (≈ 0.0488 µM) |
| CC[C@H](C)C[C@H](C)CCCCCCCCC(=O)N[C@H]1C[C@@H](O)[C@@H](NCCN)NC(=O)[C@@H]2[C@@H](O)CCN2C(=O)[C@H]([C@H](O)CCN)NC(=O)[C@H]([C@H](O)[C@@H](O)c2ccc(O)cc2)NC(=O)[C@@H]2C[C@@H](O)CN2C(=O)[C@H]([C@@H](C)O)NC1=O [CASPOFUNGIN] | 0.008 (≈ 0.00732 µM) | 0.25 (≈ 0.229 µM) | 0.031 (≈ 0.0284 µM) | 0.031 (≈ 0.0284 µM) | 0.5 (≈ 0.457 µM) | 0.001 (≈ 0.000915 µM) | 0.002 (≈ 0.00183 µM) | 0.25 (≈ 0.229 µM) | 0.008 (≈ 0.00732 µM) | 0.062 (≈ 0.0567 µM) | 0.008 (≈ 0.00732 µM) | 0.031 (≈ 0.0284 µM) | 0.002 (≈ 0.00183 µM) | 0.5 (≈ 0.457 µM) |
